Reference: patent US8846909B2, “Bicyclic heteroaryl kinase inhibitors and methods of use” (University of Rochester, priority 2010, dated 2014)

The compounds below were run against T1, MLK3 (Homo sapiens, UniProt Q16584) (assay: Radiometric filter plate MLK3 assay). Conditions: read-out: MK3 IC50.
T1 construct: purchased Dundee DU8313
Type: biochemical
Experimental: After a twenty minute incubation, the reactions were washed through filter plates and read on a scintillation counter. Results are shown in Table 10 below, in which +++ indicates ≦0.1 μM, ++ indicates >0.1 μM and ≦1 μM, and + indicates >1 μM.
Further: 2 µM cold ATP (Km).

T1 sequence (Q16584 whole entry): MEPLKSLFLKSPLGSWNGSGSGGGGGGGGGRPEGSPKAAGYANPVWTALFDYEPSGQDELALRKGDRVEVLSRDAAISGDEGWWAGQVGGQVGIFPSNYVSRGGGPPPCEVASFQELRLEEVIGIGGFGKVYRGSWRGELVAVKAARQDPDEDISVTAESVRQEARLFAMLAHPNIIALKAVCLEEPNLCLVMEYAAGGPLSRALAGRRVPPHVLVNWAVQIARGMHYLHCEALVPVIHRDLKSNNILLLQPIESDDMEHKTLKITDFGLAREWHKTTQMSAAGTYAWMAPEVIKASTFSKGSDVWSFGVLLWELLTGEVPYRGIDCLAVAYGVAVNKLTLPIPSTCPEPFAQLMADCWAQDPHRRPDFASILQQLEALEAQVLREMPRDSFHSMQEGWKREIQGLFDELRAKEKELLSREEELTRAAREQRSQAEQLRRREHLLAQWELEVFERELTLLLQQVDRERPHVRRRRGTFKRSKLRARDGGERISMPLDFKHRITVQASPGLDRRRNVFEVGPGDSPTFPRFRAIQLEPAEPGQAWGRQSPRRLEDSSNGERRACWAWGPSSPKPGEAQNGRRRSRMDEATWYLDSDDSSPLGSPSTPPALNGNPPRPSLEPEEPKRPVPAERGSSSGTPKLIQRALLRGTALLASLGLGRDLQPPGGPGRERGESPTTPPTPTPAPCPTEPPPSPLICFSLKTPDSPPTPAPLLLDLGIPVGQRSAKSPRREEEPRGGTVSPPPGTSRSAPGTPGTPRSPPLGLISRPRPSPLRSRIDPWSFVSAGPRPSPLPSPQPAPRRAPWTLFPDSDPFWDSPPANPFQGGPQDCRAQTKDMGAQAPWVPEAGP

Structure (SMILES) | IC50
COc1cc(-c2cnc3c(c2)C(=Cc2cccc(C#N)c2)C(=O)N3)cc(OC)c1OC (mixture of isomers) [Example 134, 3-[2-oxo-5-(3,4,5-trimethoxy-phenyl)-1,2-dihydro-pyrrolo[2,3-b]pyridin-3-ylidenemethyl]-benzonitrile] | > 1000 nM
CC(=O)Nc1ccc(-c2cnc3[nH]cc(-c4ccc5[nH]ccc5c4)c3c2)cc1 [Example 3, N-(4-(3-(1H-indol-5-yl)-1H-pyrrolo[2,3-b]pyridin-5-yl)phenyl)acetamide] | < 100 nM
CN1CCN(c2cc(-c3cnc4[nH]cc(-c5ccc6[nH]ccc6c5)c4c3)ccn2)CC1 [Example 7, 3-(1H-indol-5-yl)-5-(2-(4-methylpiperazin-1-yl)pyridin-4-yl)-1H-pyrrolo[2,3-b]pyridine] | < 100 nM
CS(=O)(=O)Nc1ccc(-c2cnc3[nH]cc(-c4ccc5[nH]ccc5c4)c3c2)cc1 [Example 11, N-(4-(3-(1H-indol-5-yl)-1H-pyrrolo[2,3-b]pyridin-5-yl)phenyl)methanesulfonamide] | < 100 nM
COc1cc(-c2cnc3[nH]cc(-c4ccc(N)cc4)c3c2)cc(OC)c1OC [Example 15, 4-(5-(3,4,5-trimethoxyphenyl)-1H-pyrrolo[2,3-b]pyridin-3-yl)aniline] | < 100 nM
COc1cc(-c2cnc3[nH]cc(-c4ccc(NC(C)=O)cc4)c3c2)cc(OC)c1OC [Example 16, N-(4-(5-(3,4,5-trimethoxyphenyl)-1H-pyrrolo[2,3-b]pyridin-3-yl)phenyl)acetamide] | < 100 nM
COc1cc(-c2cnc3[nH]cc(-c4ccc(N(C)C)nc4)c3c2)cc(OC)c1OC [Example 19, N,N-dimethyl-5-(5-(3,4,5-trimethoxyphenyl)-1H-pyrrolo[2,3-b]pyridin-3-yl)pyridin-2-amine] | < 100 nM
CN(C)c1ccc(-c2cnc3[nH]cc(-c4ccc(F)c(Cl)c4)c3c2)cn1 [Example 22, 5-(3-(3-chloro-4-fluorophenyl)-1H-pyrrolo[2,3-b]pyridin-5-yl)-N,N-dimethylpyridin-2-amine] | > 1000 nM
COc1cc(-c2cnc3[nH]cc(-c4ccc5c(ccn5C)c4)c3c2)cc(OC)c1OC [Example 24, 3-(1-methyl-1H-indol-5-yl)-5-(3,4,5-trimethoxyphenyl)-1H-pyrrolo[2,3-b]pyridine] | < 100 nM
COc1cc(-c2cnc3[nH]cc(-c4ccc(C(N)=O)cc4)c3c2)cc(OC)c1OC [Example 25, 4-(5-(3,4,5-trimethoxyphenyl)-1H-pyrrolo[2,3-b]pyridin-3-yl)benzamide] | < 100 nM
COc1ccc(-c2cnc3[nH]cc(-c4ccc(C(N)=O)cc4)c3c2)cc1OC [Example 26, 4-(5-(3,4-dimethoxyphenyl)-1H-pyrrolo[2,3-b]pyridin-3-yl)benzamide] | < 100 nM
CN(C)Cc1ccc(-c2cnc3[nH]cc(-c4ccc5[nH]ccc5c4)c3c2)cc1 [Example 33, 1-(4-(3-(1H-indol-5-yl)-1H-pyrrolo[2,3-b]pyridin-5-yl)phenyl)-N,N-dimethylmethanamine] | < 100 nM
COc1ccc(-c2cnc3[nH]cc(-c4ccc5[nH]ccc5c4)c3n2)cc1OC [Example 37, 2-(3,4-dimethoxyphenyl)-7-(1H-indol-5-yl)-5H-pyrrolo[3,2-b]pyrazine] | < 100 nM
COc1cc(-c2cnc3[nH]cc(-c4ccc5[nH]ccc5c4)c3n2)ccc1N [Example 38, 4-(7-(1H-indol-5-yl)-5H-pyrrolo[3,2-b]pyrazin-2-yl)-2-methoxyaniline] | < 100 nM
COc1cc(-c2cnc3[nH]cc(-c4ccc5[nH]ccc5c4)c3n2)ccc1OCCN1CCOCC1 [Example 39, 4-(2-(4-(7-(1H-indol-5-yl)-5H-pyrrolo[3,2-b]pyrazin-2-yl)-2-methoxyphenoxy)ethyl)morpholine] | < 100 nM
Cn1ccc2cc(-n3c(=O)[nH]c4ncc(-c5ccc(O)cc5)nc43)ccc21 [Example 42, 6-(4-hydroxyphenyl)-1-(1-methyl-1H-indol-5-yl)-1H-imidazo[4,5-b]pyrazin-2(3H)-one] | > 1000 nM
Cc1cc(C)cc(-c2cnc3[nH]c(=O)n(-c4ccc5c(ccn5C)c4)c3n2)c1 [Example 43, 6-(3,5-dimethylphenyl)-1-(1-methyl-1H-indol-5-yl)-1H-imidazo[4,5-b]pyrazin-2(3H)-one] | > 1000 nM
COc1cc(-c2cnc3[nH]c(=O)n(-c4ccc5[nH]ccc5c4)c3n2)ccc1O [Example 55, 6-(4-hydroxy-3-methoxyphenyl)-1-(1H-indol-5-yl)-1H-imidazo[4,5-b]pyrazin-2(3H)-one] | < 100 nM
O=c1[nH]c2ncc(-c3ccc4cc[nH]c4c3)nc2n1-c1ccc2[nH]ccc2c1 [Example 56, 1-(1H-indol-5-yl)-6-(1H-indol-6-yl)-1H-imidazo[4,5-b]pyrazin-2(3H)-one] | > 1000 nM
COc1cc(-c2cnc3[nH]c(=O)n(-c4ccc5[nH]ccc5c4)c3n2)ccc1OCCN1CCOCC1 [Example 57, 1-(1H-indol-5-yl)-6-(3-methoxy-4-(2-morpholinoethoxy)phenyl)-1H-imidazo[4,5-b]pyrazin-2(3H)-one] | < 100 nM
COc1cc(-c2cnc3[nH]c(=O)n(-c4ccc5[nH]ccc5c4)c3n2)ccc1N [Example 60, 6-(4-amino-3-methoxyphenyl)-1-(1H-indol-5-yl)-1H-imidazo[4,5-b]pyrazin-2(3H)-one] | < 100 nM
O=c1[nH]c2ncc(-c3cc(F)cc(F)c3)nc2n1-c1ccc2[nH]ccc2c1 [Example 61, 6-(3,5-difluorophenyl)-1-(1H-indol-5-yl)-1H-imidazo[4,5-b]pyrazin-2(3H)-one] | > 1000 nM
CN1CCN(c2cc(-c3cnc4[nH]c(=O)n(-c5ccc6[nH]ccc6c5)c4n3)ccn2)CC1 [Example 66, 1-(1H-indol-5-yl)-6-(2-(4-methylpiperazin-1-yl)pyridin-4-yl)-1H-imidazo[4,5-b]pyrazin-2(3H)-one] | > 1000 nM
COc1ccc(-n2c(=O)[nH]c3ncc(-c4ccc(OC)c(OC)c4)nc32)cc1 [Example 69, 6-(3,4-dimethoxyphenyl)-1-(4-methoxyphenyl)-1H-imidazo[4,5-b]pyrazin-2(3H)-one] | > 1000 nM
COc1ccc(-n2c(=O)[nH]c3ncc(-c4ccc(O)cc4)nc32)cc1 [Example 70, 6-(4-hydroxyphenyl)-1-(4-methoxyphenyl)-1H-imidazo[4,5-b]pyrazin-2(3H)-one] | > 1000 nM

More lines, now with the values ahead:

IC50 | Structure (SMILES)
> 1000 nM | COc1cc(-c2cnc3c(c2)C(=Cc2ccncc2)C(=O)N3)cc(OC)c1OC (single isomer, unassigned) [Example 129, (E)- and (Z)-3-pyridin-4-ylmethylene-5-(3,4,5-trimethoxy-phenyl)-1,3-dihydro-pyrrolo[2,3-b]pyridin-2-one]
< 100 nM | COc1cc(-c2cnc3[nH]cc(-c4ccc5[nH]ccc5c4)c3c2)ccc1N [Example 5, 4-(3-(1H-indol-5-yl)-1H-pyrrolo[2,3-b]pyridin-5-yl)-2-methoxyaniline]
< 100 nM | Nc1ccc(-c2cnc3[nH]cc(-c4ccc5[nH]ccc5c4)c3c2)cc1 [Example 8, 4-(3-(1H-indol-5-yl)-1H-pyrrolo[2,3-b]pyridin-5-yl)aniline]
> 1000 nM | Nc1ncc(-c2cnc3[nH]cc(-c4cnc(N)nc4)c3c2)cn1 [Example 20, 5,5′-(1H-pyrrolo[2,3-b]pyridine-3,5-diyl)dipyrimidin-2-amine]
> 1000 nM | Nc1ccc(-c2cnc3[nH]cc(-c4ccc(F)c(Cl)c4)c3c2)cn1 [Example 29, 5-(3-(3-chloro-4-fluorophenyl)-1H-pyrrolo[2,3-b]pyridin-5-yl)pyridin-2-amine]
100 to 1000 nM | c1cc2cc(-c3c[nH]c4ncc(-c5ccc(NCCN6CCCC6)nc5)cc34)ccc2[nH]1 [Example 31, 5-(3-(1H-indol-5-yl)-1H-pyrrolo[2,3-b]pyridin-5-yl)-N-(2-(pyrrolidin-1-yl)ethyl)pyridin-2-amine]
> 1000 nM | COc1cc(-c2cnc3[nH]cc(-c4ccc5[nH]ccc5c4)c3c2)ccc1OCCN(C)C [Example 35, 2-(4-(3-(1H-indol-5-yl)-1H-pyrrolo[2,3-b]pyridin-5-yl)-2-methoxyphenoxy)-N,N-dimethylethanamine]
< 100 nM | COc1cc(-c2cnc3[nH]c(=O)n(-c4ccc5[nH]ccc5c4)c3n2)cc(OC)c1OC [Example 40, 1-(1H-indol-5-yl)-6-(3,4,5-trimethoxyphenyl)-1H-imidazo[4,5-b]pyrazin-2(3H)-one]
> 1000 nM | O=c1[nH]c2ncc(-c3ccncc3)nc2n1-c1ccc2[nH]ccc2c1 [Example 44, 1-(1H-indol-5-yl)-6-(pyridin-4-yl)-1H-imidazo[4,5-b]pyrazin-2(3H)-one]
> 1000 nM | Cc1cc(C)cc(-c2cnc3[nH]c(=O)n(-c4ccc5[nH]ccc5c4)c3n2)c1 [Example 46, 6-(3,5-dimethylphenyl)-1-(1H-indol-5-yl)-1H-imidazo[4,5-b]pyrazin-2(3H)-one]
> 1000 nM | O=c1[nH]c2ncc(-c3cc(Cl)cc(Cl)c3)nc2n1-c1ccc2[nH]ccc2c1 [Example 48, 6-(3,5-dichlorophenyl)-1-(1H-indol-5-yl)-1H-imidazo[4,5-b]pyrazin-2(3H)-one]
> 1000 nM | COc1ccc(-c2cnc3[nH]c(=O)n(-c4ccc5[nH]ccc5c4)c3n2)cc1F [Example 49, 6-(3-fluoro-4-methoxyphenyl)-1-(1H-indol-5-yl)-1H-imidazo[4,5-b]pyrazin-2(3H)-one]
< 100 nM | O=c1[nH]c2ncc(-c3cc(F)c(O)c(F)c3)nc2n1-c1ccc2[nH]ccc2c1 [Example 59, 6-(3,5-difluoro-4-hydroxyphenyl)-1-(1H-indol-5-yl)-1H-imidazo[4,5-b]pyrazin-2(3H)-one]
< 100 nM | COc1cc(-c2cnc3[nH]c(=O)n(-c4ccc5[nH]ccc5c4)c3n2)cc(OC)c1O [Example 62, 6-(4-hydroxy-3,5-dimethoxyphenyl)-1-(1H-indol-5-yl)-1H-imidazo[4,5-b]pyrazin-2(3H)-one]
> 1000 nM | COc1cc(OC)cc(-c2cnc3[nH]c(=O)n(-c4ccc5[nH]ccc5c4)c3n2)c1 [Example 65, 6-(3,5-dimethoxyphenyl)-1-(1H-indol-5-yl)-1H-imidazo[4,5-b]pyrazin-2(3H)-one]
